# In US10442804B2, “Compounds for the treatment of hepatitis B virus infection” (Gilead Sciences, Inc., priority 2017, dated 2019):
# Like-named read-outs stand apart in the source and are kept apart here.
# Assays:
# [1] = test system: HBV-infected NTCP-HepG2 cells, secreted HBsAg; experiment: microbe, parasite or virus in culture; format: cell-based, hepatitis B virus (genotype D, AD38-derived); settings: secreted HBsAg in supernatant after 5 days, geometric mean of minimum four determinations, read-out: NTCP HBsAg EC50
# In short: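 NTCP-HepG2 cells were infected with genotype D HBV at 4000 genome equivalents/cell, then seeded 4 days post-infection with serially diluted compounds (1% DMSO) for 5 days. Supernatant HBsAg was measured by chemiluminescent MSD immunoassay. EC50 from four-parameter fit, geometric mean of ≥4 determinations.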
# MT-4 cytotoxicity assay = format: cell-based, human; settings: human
# [2] = test system: Human iPSC derived iCell GABAergic Neurons; experiment: Human iPSC neurite outgrowth assay; format: cell-based
# Procedure: Biological Example 4: Toxicology Study
# Human iPSC Neurite Outgrowth Assay
# Human induced pluripotent stem cell (iPSC) derived iCell GABAergic Neurons (Cellular Dynamics Inc.) were seeded at a density of 67,500 cells per square centimeter into 384 well plates. The neurons were plated for 1 hour in attachment media before exchange for serum-free growth media (Cellular Dynamics Inc.). The serum-free growth media was exchanged for fresh media and the plated neurons were treated with test compounds and control compounds at 6 concentrations (1 nM-100 μM) at 4 and 24 hour timepoints in triplicate wells. Optimum neuron cell attachment to the plates was obtained at the 24 hour timepoint. Vincristine was utilized as the positive control for toxic inhibition of neurite outgrowth and 0.1% DMSO treatment was used for control treatment of neurons. Celltracker and DRAQ7 stains were applied prior to fixation of cells to assess nuclear and cell viability. Cells were then fixed for 20 minutes in 4% formaldehyde in PBS containing Hoechst dye and then fixative was replaced with PBS twice. High content imaging was performed with 9 fields of 20× magnification on a CX7 HCS system with an algorithm to enable quantification of neurite lengths and neurite branch points in all treatment groups. The results of the counts and measurements were then analyzed by the strictly standardized mean difference (SSMD) method of analysis to measure effect size for any decreases in mean neurite total length per cell (microns) or changes in mean branch point counts per cell (PhenoVista Biosciences, San Diego). FIG. 1 depicting plots of mean branch point counts per cell as a function of concentration for Vincristine, RG783/R07020322, and Compound 73 (free base, purified without addition of TFA). […]
# [3] = In vitro metabolic stability, hepatocyte stability (dog); format: in vitro ADME; settings: Dog hepatocytes, read-out: hepatocyte stability T1/2 (converted)
# Procedure: (§1) Biological Example 3: In Vitro Metabolic Stability
# (§2) For hepatocyte stability incubations, cells were obtained from BioreclamationIVT (Baltimore, Md.), thawed according to the manufacturer's directions, and resuspended to a final concentration of 1×10^6 cells/mL in Krebs-Henseleit buffer prewarmed to 37° C. The total cell count and the proportion of viable cells were determined by Trypan Blue dye exclusion using a hemocytometer. The final concentration of test compounds and positive controls was 2 μM. Incubations were carried out in duplicate wells of a 24-well plate out with gentle shaking at 37° C. under a humid atmosphere of 95% air/5% CO2 (v/v). Aliquots (50 μL) were removed after 0, 1, 3, and 6 hours and added to 100 μL quenching solution. Samples were then processed and analyzed in a manner similar to the microsomal stability samples.
# (§3) Quantification of test compounds and positive controls were performed using analyte/internal standard peak area ratios (PAR) measured on a Q-Exactive mass spectrometer (Thermo Scientific, San Jose, Calif.) coupled to an Aria Transcend LX-4 multiplex UHPLC system (Thermo Scientific, San Jose, Calif.). […] Half-lives of compounds in the incubations were calculated from extracted data using GMSU/QuickCalc (Gubbs, Inc.) and data are summarized in the following Table 2.
# [4] = In vitro metabolic stability, hepatocyte stability (rat); format: in vitro ADME; settings: Rat hepatocytes, read-out: hepatocyte stability T1/2 (converted)
# Procedure: as §1, §2, §3
# [5] = In vitro metabolic stability, hepatocyte stability (cynomolgus monkey); format: in vitro ADME; settings: Cyno hepatocytes, read-out: hepatocyte stability T1/2 (converted)
# Procedure: as §1, §2, §3
# [6] = In vitro metabolic stability, hepatocyte stability (human); format: in vitro ADME; settings: Human hepatocytes, read-out: hepatocyte stability T1/2 (converted)
# Procedure: as §1, §2, §3
# [7] = test system: MT-4 cell line (HTLV-1 transformed, human T lymphoblastoid cells); experiment: MT-4 cytotoxicity assay; format: cell-based; settings: five days, Cell Titer Glo luminescence
# [8] = five days, Cell Titer Glo luminescence, read-out: MT-4 CC50
smiles,measurement,setting,value
"COCCCOc1cc2c(cc1COC)-c1cc(=O)c(C(=O)O)cn1N1[C@@H]2CCC1(C)C [Example 73, (R)-11-(methoxymethyl)-12-(3-methoxypropoxy)-3,3-dimethyl-8-oxo-2,3,8,13b-tetrahydro-1H-pyrido[2,1-a]pyrrolo[1,2-c]phthalazine-7-carboxylic acid]",EC50,"[1]; Hepatitis B virus, 120 h",1.9 nM
same,CC50 at 5 days,MT-4 cytotoxicity assay; [8],> 10 µM
same,neurite total length and branch point counts,[2],No significant effects
"COCCCOc1cc2c(cc1Cl)-c1cc(=O)c(C(=O)O)cn1N1[C@@H]2CCC1(C)C (single isomer, unassigned) [Example 5]",half-life at 2 μM,[3],> 2370 min
same,half-life at 2 μM,[4],> 2370 min
same,EC50,"[1]; Hepatitis B virus, 120 h",1.7 nM
same,CC50 at 5 days,MT-4 cytotoxicity assay; [8],> 10 µM
same,half-life at 2 μM,[5],1250 min
same,half-life at 2 μM,[6],> 2370 min
"COCCCOc1cc2c(cc1Cl)-c1cc(=O)c(C(=O)O)cn1[C@H]1[C@@H]2CCC1(C)C (single isomer, unassigned) [Example 33]",half-life at 2 μM,[3],342 min
same,half-life at 2 μM,[4],96 min
same,EC50,"[1]; Hepatitis B virus, 120 h",1.8 nM
same,CC50 at 5 days,MT-4 cytotoxicity assay; [8],7.9 µM
same,half-life at 2 μM,[5],336 min
same,half-life at 2 μM,[6],1300 min
COCCCOc1cc2c(cc1OC)-c1cc(=O)c(C(=O)O)cn1[C@H](C(C)C)C2 [RG7834/R07020322],neurite total length and branch point counts,[2],significant decreases
same,Decreased Neurite Length SSMD Values,"[2]; human, 4 h, 10 μM",−3.8
same,Branch Point Count SSMD Values,"[2]; human, 4 h, 100 μM",−5.2
same,Decreased Neurite Length SSMD Values,"[2]; human, 4 h, 100 μM",−4.0
same,Branch Point Count SSMD Values,"[2]; human, 24 h, 1 μM",−3.3
same,Decreased Neurite Length SSMD Values,"[2]; human, 24 h, 1 μM",−3.4
same,Branch Point Count SSMD Values,"[2]; human, 24 h, 10 μM",−3.4
same,Decreased Neurite Length SSMD Values,"[2]; human, 24 h, 10 μM",−5.9
same,Branch Point Count SSMD Values,"[2]; human, 24 h, 100 μM",−5.0
same,Decreased Neurite Length SSMD Values,"[2]; human, 24 h, 100 μM",−4.5
"COCCCOc1cc2c(cc1Cl)-c1cc(=O)c(C(=O)O)cn1[C@H]1[C@@H]2CCC1(C)C (racemic) [Example 32, cis-10-chloro-11-(3-methoxypropoxy)-3,3-dimethyl-7-oxo-1,2,3,3a,7,12b-hexahydrocyclopenta[c]pyrido[2,1-a]isoquinoline-6-carboxylic acid]",EC50,[1],120 nM
same,CC50,[7],6 µM
CC[C@]1(O)C[C@H]2CN(CCc3c([nH]c4ccccc34)[C@@](C(=O)OC)(c3cc4c(cc3OC)N(C=O)[C@H]3[C@@](O)(C(=O)OC)[C@H](OC(C)=O)[C@]5(CC)C=CCN6CC[C@]43[C@@H]65)C2)C1 [Vincristine],neurite total length and branch point counts,"[2]; 4 and 24 hour treatments, vs 0.1% DMSO treated neurons, SSMD analysis",significant decreases
same,Branch Point Count SSMD Values,"[2]; 4 hr, 0.001 μM, vs 0.1% DMSO",NS (NS = no significant effect and >−3 SSMD Values.)
same,Decreased Neurite Length SSMD Values,"[2]; 4 hr, 0.001 μM, vs 0.1% DMSO",NS (NS = no significant effect and >−3 SSMD Value.)
same,Branch Point Count SSMD Values,"[2]; 4 hr, 0.01 μM, vs 0.1% DMSO",NS (NS = no significant effect and >−3 SSMD Values.)
same,Decreased Neurite Length SSMD Values,"[2]; 4 hr, 0.01 μM, vs 0.1% DMSO",NS (NS = no significant effect and >−3 SSMD Value.)
same,Branch Point Count SSMD Values,"[2]; 4 hr, 0.1 μM, vs 0.1% DMSO",NS (NS = no significant effect and >−3 SSMD Values.)
same,Decreased Neurite Length SSMD Values,"[2]; 4 hr, 0.1 μM, vs 0.1% DMSO",NS (NS = no significant effect and >−3 SSMD Value.)
same,Branch Point Count SSMD Values,"[2]; 4 hr, 1 μM, vs 0.1% DMSO",NS (NS = no significant effect and >−3 SSMD Values.)
same,Decreased Neurite Length SSMD Values,"[2]; 4 hr, 1 μM, vs 0.1% DMSO",−7.3
same,Branch Point Count SSMD Values,"[2]; 4 hr, 10 μM, vs 0.1% DMSO",−3.0
same,Decreased Neurite Length SSMD Values,"[2]; 4 hr, 10 μM, vs 0.1% DMSO",−5.7
same,Branch Point Count SSMD Values,"[2]; 4 hr, 100 μM, vs 0.1% DMSO",−3.5
same,Decreased Neurite Length SSMD Values,"[2]; 4 hr, 100 μM, vs 0.1% DMSO",−10
same,Branch Point Count SSMD Values,"[2]; 24 hr, 0.001 μM, vs 0.1% DMSO",NS (NS = no significant effect and >−3 SSMD Values.)
same,Decreased Neurite Length SSMD Values,"[2]; 24 hr, 0.001 μM, vs 0.1% DMSO",NS (NS = no significant effect and >−3 SSMD Value.)
same,Branch Point Count SSMD Values,"[2]; 24 hr, 0.01 μM, vs 0.1% DMSO",NS (NS = no significant effect and >−3 SSMD Values.)
same,Decreased Neurite Length SSMD Values,"[2]; 24 hr, 0.01 μM, vs 0.1% DMSO",NS (NS = no significant effect and >−3 SSMD Value.)
same,Branch Point Count SSMD Values,"[2]; 24 hr, 0.1 μM, vs 0.1% DMSO",NS (NS = no significant effect and >−3 SSMD Values.)
same,Decreased Neurite Length SSMD Values,"[2]; 24 hr, 0.1 μM, vs 0.1% DMSO",NS (NS = no significant effect and >−3 SSMD Value.)
same,Branch Point Count SSMD Values,"[2]; 24 hr, 1 μM, vs 0.1% DMSO",−3.1
same,Decreased Neurite Length SSMD Values,"[2]; 24 hr, 1 μM, vs 0.1% DMSO",−4.9
same,Branch Point Count SSMD Values,"[2]; 24 hr, 10 μM, vs 0.1% DMSO",−3.6
same,Decreased Neurite Length SSMD Values,"[2]; 24 hr, 10 μM, vs 0.1% DMSO",−5.4
same,Branch Point Count SSMD Values,"[2]; 24 hr, 100 μM, vs 0.1% DMSO",−6.0
same,Decreased Neurite Length SSMD Values,"[2]; 24 hr, 100 μM, vs 0.1% DMSO",−6.6
same,neuron counts or neuron viability,"[2]; any of the tested concentrations (1 nM-100 μM), vs 0.1% DMSO control, SSMD analysis",No significant changes of effect
"COCCCOc1cc2c(cc1Cl)-c1cc(=O)c(C(=O)O)cn1N1[C@@H]2CCC12COC2 [Example 82, (R)-11′-chloro-12′-(3-methoxypropoxy)-8′-oxo-1′,2′,8′,13b′-tetrahydrospiro[oxetane-3,3′-pyrido[2,1-a]pyrrolo[1,2-c]phthalazine]-7′-carboxylic acid]",EC50,"[1]; Hepatitis B virus, 120 h",72 nM
same,CC50 at 5 days,MT-4 cytotoxicity assay; MT-4 CC50,> 10 µM
"CCc1cc2c(cc1OCC13CC(C#N)(C1)C3)[C@H]1CCC(C)(C)N1n1cc(C(=O)O)c(=O)cc1-2 [Example 100, (R)-12-((3-cyanobicyclo[1.1.1]pentan-1-yl)methoxy)-11-ethyl-3,3-dimethyl-8-oxo-2,3,8,13b-tetrahydro-1H-pyrido[2,1-a]pyrrolo[1,2-c]phthalazine-7-carboxylic acid]",EC50,"[1]; Hepatitis B virus, 120 h",0.48 nM
same,CC50 at 5 days,MT-4 cytotoxicity assay; [8],3.9 µM
